Consider 23 compounds from ChEMBL document CHEMBL3244399, “Antifungal agents. 4. Chemical modification of antibiotics from Polyangium cellulosum var. fulvum. Ester and amide analogues of ambruticin” (1979).

Structures are written as SMILES. ≈ marks a conversion by molar mass, not a printed value. Calls of active or inactive are those of the source. The calls are words filed in the database; no cut-off is given here. Where only a bound is given, the exact number is not on record here.

For orientation: MIC means the lowest concentration found to suppress growth.

Test [1] deals with Candida albicans. Put plainly: Antifungal activity against Candida albicans assessed as growth inhibition by standard broth dilution method. The format is functional, organism-based.
Test [2] relates to Histoplasma capsulatum. As to the kind of experiment: Antifungal activity against Histoplasma capsulatum assessed as growth inhibition by standard broth dilution method. Format: functional. (Dilution methods test growth across graded concentrations, often in twofold steps.)
A short description of test [3]: Antifungal activity against Microsporum fulvum assessed as growth inhibition by standard broth dilution method. Particulars: Arthroderma fulvum. The format is functional.
Test [4] concerns Streptococcus pyogenes. As to the kind of experiment: Antifungal activity against Streptococcus pyogenes assessed as growth inhibition by standard broth dilution method. Format: functional.

`CC[C@H]1O[C@@H](/C(C)=C/[C@H](C)/C=C/[C@H]2[C@@H](C)[C@@H]2/C=C/[C@@H]2O[C@H](CC(=O)N(C(=O)NC3CCCCC3)C3CCCCC3)C[C@H](O)[C@H]2O)CC=C1C`: the inhibition result in test [1] is “inactive”. Moreover, the MIC in test [2] and in test [3] was above 50 µg/mL throughout. In addition, the MIC entry in test [4] was “inactive”.
On to `CC[C@H]1O[C@@H](/C(C)=C/[C@H](C)/C=C/[C@H]2[C@@H](C)[C@@H]2/C=C/[C@@H]2O[C@H](CC(=O)OC)C[C@@H]3OC(=O)O[C@@H]23)CC=C1C` (relative stereo), for which the inhibition entry in test [1] is “inactive”. For the same compound, the MIC was 0.78 µg/mL (≈ 1.52 µM) in test [2] and 0.39 µg/mL (≈ 0.758 µM) in test [3]. Further, the MIC entry in test [4] is “inactive”.
On to `CCCCNC(=O)C[C@@H]1C[C@H](OC(C)=O)[C@@H](OC(C)=O)[C@H](/C=C/[C@H]2[C@H](C)[C@@H]2/C=C/[C@@H](C)/C=C(\C)[C@H]2CC=C(C)[C@@H](CC)O2)O1`, for which the inhibition entry in test [1] was “inactive”.
As to `CC[C@H]1O[C@@H](/C(C)=C/[C@H](C)/C=C/[C@H]2[C@@H](C)[C@@H]2/C=C/[C@@H]2O[C@H](CC(=O)O)C[C@H](OC=O)[C@H]2OC=O)CC=C1C`, in test [1], the inhibition result was “inactive”. The MIC in test [2] is 1.56 µg/mL (≈ 2.94 µM); in test [3] it was 1.56 µg/mL (≈ 2.94 µM); in test [4] it was 25 µg/mL (≈ 47.1 µM).
As for `CC[C@H]1O[C@@H](/C(C)=C/[C@H](C)/C=C/[C@H]2[C@@H](C)[C@@H]2/C=C/[C@@H]2O[C@H](CC(=O)N3CCCC3)C[C@H](O)[C@H]2O)CC=C1C`, the inhibition result in test [1] was “inactive”. Moreover, the MIC in test [2] was determined as 0.39 µg/mL (≈ 0.739 µM); in test [3], 0.78 µg/mL (≈ 1.48 µM); in test [4], 3.12 µg/mL (≈ 5.91 µM).
For `CC[C@H]1O[C@@H](/C(C)=C/[C@H](C)/C=C/[C@H]2[C@@H](C)[C@@H]2/C=C/[C@@H]2O[C@H](CC(=O)OC)C[C@H](OC(=O)Nc3ccccc3)[C@H]2OC(=O)Nc2ccccc2)CC=C1C`, in that order: “inactive”, 25 µg/mL (≈ 34.4 µM), above 50 µg/mL and “inactive”.
For `CC[C@H]1O[C@@H](/C(C)=C/[C@H](C)/C=C/[C@H]2[C@@H](C)[C@@H]2/C=C/[C@@H]2O[C@H](CC(=O)N3CCCCC3)C[C@H](O)[C@H]2O)CC=C1C` the same measures were “inactive”, 3.12 µg/mL (≈ 5.76 µM), 0.78 µg/mL (≈ 1.44 µM) and 1.56 µg/mL (≈ 2.88 µM).
For `CC[C@H]1O[C@@H](/C(C)=C/[C@H](C)/C=C/[C@H]2[C@@H](C)[C@@H]2/C=C/[C@@H]2O[C@H](CC(=O)OC)C[C@H](O)[C@H]2O)CC=C1C` (relative stereo) the same measures were “inactive”, 0.39 µg/mL (≈ 0.798 µM), 0.39 µg/mL (≈ 0.798 µM) and “inactive”.
Consider `CC[C@H]1O[C@@H](/C(C)=C/[C@H](C)/C=C/[C@H]2[C@@H](C)[C@@H]2/C=C/[C@@H]2O[C@H](CC(=O)NC3CCCCC3)C[C@H](O)[C@H]2O)CC=C1C`, for which the inhibition result in test [1] was “inactive”. Also, the MIC amounted to 3.12 µg/mL (≈ 5.61 µM) in test [2] and 25 µg/mL (≈ 45 µM) in test [3].
`CC[C@H]1O[C@@H](/C(C)=C/[C@H](C)/C=C/[C@H]2[C@@H](C)[C@@H]2/C=C/[C@@H]2O[C@H](CC(=O)N3CCCC3)C[C@H](OC(C)=O)[C@H]2OC(C)=O)CC=C1C`: in test [1], the inhibition entry was “inactive”. Besides, the MIC in test [2] was 50 µg/mL (≈ 81.7 µM); in test [3], above 50 µg/mL. Also, in test [4], the MIC entry is “inactive”.
Regarding `CCC(=O)O[C@H]1[C@H](/C=C/[C@H]2[C@H](C)[C@@H]2/C=C/[C@@H](C)/C=C(\C)[C@H]2CC=C(C)[C@@H](CC)O2)O[C@H](CC(=O)O)C[C@@H]1OC(=O)CC`, the inhibition result in test [1] was “inactive”. Further, the MIC in test [2] is 6.25 µg/mL (≈ 10.7 µM); in test [3] it was above 50 µg/mL; in test [4] it was 6.25 µg/mL (≈ 10.7 µM).
As for `CC[C@H]1O[C@@H](/C(C)=C/[C@H](C)/C=C/[C@H]2[C@@H](C)[C@@H]2/C=C/[C@@H]2O[C@H](CC(=O)OC)C[C@H](OC=O)[C@H]2OC=O)CC=C1C`, in test [1], the inhibition entry was “inactive”. For the same compound, the values for the MIC in test [2] and in test [3] were 3.12 µg/mL (≈ 5.73 µM) and 12.5 µg/mL (≈ 22.9 µM), respectively. Moreover, in test [4], the MIC result is “inactive”.
For `CC[C@H]1O[C@@H](/C(C)=C/[C@H](C)/C=C/[C@H]2[C@@H](C)[C@@H]2/C=C/[C@@H]2O[C@H](CC(=O)NC3CCCCC3)C[C@H](OC(C)=O)[C@H]2OC(C)=O)CC=C1C`, the inhibition result in test [1] is “inactive”. Further, the MIC in test [2] and in test [3] was above 50 µg/mL in each case. For the same compound, in test [4], the MIC result is “inactive”.
As to `CC[C@H]1O[C@@H](/C(C)=C/[C@H](C)/C=C/[C@H]2[C@@H](C)[C@@H]2/C=C/[C@@H]2O[C@H](CC(=O)OC)C[C@H](OC(C)=O)[C@H]2OC(C)=O)CC=C1C` (relative stereo), the inhibition entry in test [1] was “inactive”. The MIC in test [2] was 12.5 µg/mL (≈ 21.8 µM); in test [3], above 50 µg/mL. Also, the MIC entry in test [4] was “inactive”.
Take `CC[C@H]1O[C@@H](/C(C)=C/[C@H](C)/C=C/[C@H]2[C@@H](C)[C@@H]2/C=C/[C@@H]2O[C@H](CC(=O)NCc3ccccc3)C[C@H](O)[C@H]2O)CC=C1C`: in test [1], the inhibition result is “inactive”. Further, the minimal inhibitory concentration (MIC) is 6.25 µg/mL (≈ 11.1 µM) in test [2], above 50 µg/mL in test [3] and 3.12 µg/mL (≈ 5.53 µM) in test [4].
On to `CCCCNC(=O)C[C@@H]1C[C@H](O)[C@@H](O)[C@H](/C=C/[C@H]2[C@H](C)[C@@H]2/C=C/[C@@H](C)/C=C(\C)[C@H]2CC=C(C)[C@@H](CC)O2)O1`, for which the inhibition result in test [1] is “inactive”. Moreover, the MIC in test [2] was 1.56 µg/mL (≈ 2.94 µM); in test [3], 6.25 µg/mL (≈ 11.8 µM); in test [4] it was 1.56 µg/mL (≈ 2.94 µM).
Consider `CC[C@H]1O[C@@H](/C(C)=C/[C@H](C)/C=C/[C@H]2[C@@H](C)[C@@H]2/C=C/[C@@H]2O[C@H](CC(=O)O)C[C@H](OC(C)=O)[C@H]2OC(C)=O)CC=C1C` (relative stereo), for which the inhibition entry in test [1] was “inactive”. The MIC in test [2] is 3.12 µg/mL (≈ 5.58 µM); in test [3] it was 3.12 µg/mL (≈ 5.58 µM); in test [4], 6.25 µg/mL (≈ 11.2 µM).
As to `CC[C@H]1O[C@@H](/C(C)=C/[C@H](C)/C=C/[C@H]2[C@@H](C)[C@@H]2/C=C/[C@@H]2O[C@H](CC(=O)OC)C[C@H](OC(=O)Nc3ccc(Cl)cc3)[C@H]2OC(=O)Nc2ccc(Cl)cc2)CC=C1C`, in test [1], the inhibition result was “inactive”. The MIC is 50 µg/mL (≈ 62.8 µM) in test [2] and above 50 µg/mL in test [3]. Also, the MIC result in test [4] was “inactive”.
On to `CC[C@H]1O[C@@H](/C(C)=C/[C@H](C)/C=C/[C@H]2[C@@H](C)[C@@H]2/C=C/[C@@H]2O[C@H](CC(=O)NCc3ccccc3)C[C@H](OC(C)=O)[C@H]2OC(C)=O)CC=C1C`, for which the inhibition result in test [1] was “inactive”.
For the compound `CCCC(=O)O[C@H]1[C@H](/C=C/[C@H]2[C@H](C)[C@@H]2/C=C/[C@@H](C)/C=C(\C)[C@H]2CC=C(C)[C@@H](CC)O2)O[C@H](CC(=O)O)C[C@@H]1OC(=O)CCC`, in test [1], the inhibition entry was “inactive”. Moreover, the MIC in test [2] is 12.5 µg/mL (≈ 20.3 µM); in test [3] it was above 50 µg/mL; in test [4], 6.25 µg/mL (≈ 10.2 µM).
For `CC[C@H]1O[C@@H](/C(C)=C/[C@H](C)/C=C/[C@H]2[C@@H](C)[C@@H]2/C=C/[C@@H]2O[C@H](CC(=O)O)C[C@H](O)[C@H]2O)CC=C1C` (relative stereo) [AMBRUTICIN] the same measures were “inactive”, 0.195 µg/mL (≈ 0.411 µM), 0.098 µg/mL (≈ 0.206 µM) and 25 µg/mL (≈ 52.7 µM).
Take `CC[C@H]1O[C@@H](/C(C)=C/[C@H](C)/C=C/[C@H]2[C@@H](C)[C@@H]2/C=C/[C@@H]2O[C@H](CC(=O)N3CCCCC3)C[C@H](OC(C)=O)[C@H]2OC(C)=O)CC=C1C`: in test [1], the inhibition entry was “inactive”.
`CC[C@H]1O[C@@H](/C(C)=C/[C@H](C)/C=C/[C@H]2[C@@H](C)[C@@H]2/C=C/[C@@H]2O[C@H](CC(=O)N(C(=O)NC3CCCCC3)C3CCCCC3)C[C@H](OC(C)=O)[C@H]2OC(C)=O)CC=C1C`: the inhibition result in test [1] is “inactive”. For the same compound, the MIC in test [2] and in test [3] was above 50 µg/mL in each case. In test [4], the MIC entry was “inactive”.
